Results taken from patent US11141403B2, “Benzimidazoles and indoles as taro inhibitors” (MERCK SHARP & DOHME CORP., priority 2015, dated 2021).

Legend:
TarO = TarO (Staphylococcus aureus, UniProt Q2G060); assay: TarO Biochemical Enzymatic Assay (LC-MS end point, C55-PP-GlcNAc (LIPID III) production); conditions: TarO membrane preparation derived from MRSA COL; read-out: TARO inhibitor IC50
From the text: The pathway for the biosynthesis of wall teichoic acid (WTA) in Staphylococci involves a series of biochemical enzymatic reactions by proteins encoded by the tar genes (teichoic acid ribitol). The first enzymatic step in the synthesis of WTA is initiated by TarO, N-acetylglucosaminyl-1-P transferase, which catalyzes the transfer of N-acetyl-glucosamine-phosphate (GlcNAc-P) to an undecaprenyl phosphate (C55-P), also known as bactoprenyl phosphate, to generate C55-PP-GlcNAc (LIPID III).
The TarO biochemical enzymatic assay is a liquid chromatography-mass spectroscopy (LC-MS) based end point assay that measures C55-P-P-GlcNAc (LIPID III) production. The TarO biochemical enzymatic assay was performed in a 384-well microtiter plate (Labcyte) with a reaction volume of 20 μl. […] The linearity of C55-PP-GlcNAc concentration versus mass spectrometric signal (AC55-PP-GlcNAc/A15C-C55-PP-GlcNAc) was determined with purified C55-PP-GlcNAc. The IC50 values were calculated using the nonlinear regression analysis (sigmoidal dose response fit allowing for a variable slope) of percent inhibition data with minimum and maximum values set to 0 and 100 percent.

MRSA COL (MB5393) = assay: TarO Inhibitor/β-Lactam Synergy Assay; format: cell-based, Staphylococcus aureus; conditions: 20 hours
Outline: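 TarO inhibitors titrated 2-fold from 200 μM (2% DMSO) against MRSA COL, 5×10^5 CFU in CAMHB, with β-lactam fixed at clinical breakpoint (imipenem 4 μg/ml or dicloxacillin 8 μg/ml). Incubated 20 h at 37 °C without shaking; relative growth read as OD600.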

Chain of TarO (Q2G060 1-351): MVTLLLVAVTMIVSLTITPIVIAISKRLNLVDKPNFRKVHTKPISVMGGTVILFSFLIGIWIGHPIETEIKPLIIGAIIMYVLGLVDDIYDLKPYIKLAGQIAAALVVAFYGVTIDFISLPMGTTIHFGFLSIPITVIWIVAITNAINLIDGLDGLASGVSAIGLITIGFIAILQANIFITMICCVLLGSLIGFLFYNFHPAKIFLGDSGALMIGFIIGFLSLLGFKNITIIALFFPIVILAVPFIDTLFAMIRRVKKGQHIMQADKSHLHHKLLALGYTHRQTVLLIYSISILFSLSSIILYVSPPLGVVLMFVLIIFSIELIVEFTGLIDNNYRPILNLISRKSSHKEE

## CCN(C(=O)CCn1c(C2CCCN(C(=O)OC(C)(C)C)C2)nc2ccccc21)C1CCCCC1 (stereo not shown) [Example 54]
TarO
  IC50: 450 nM
MRSA COL (MB5393); TarO inhibitor alone, OD600, 95% growth inhibition, read-out: MITC95 TarO inhibitor alone, Bacteria: SA_MB5393
  IC95: 100000 nM
MRSA COL (MB5393); in combination with 4 μg/mL imipenem, OD600
  MITC95 TarO inhibitor + 4 μg/mL IPM; Bacteria: SA_MB5393: 1.56 µM
MRSA COL (MB5393); in combination with 8 μg/mL dicloxacillin, OD600
  MITC95 TarO inhibitor + 8 μg/mL DCX; Bacteria: SA_MB5393: 12.50 µM
